# Data from patent EP0174085A2, “Bisarylamides of N,N'-di-[1-aminoalkyl-2]-alkylene diamines having a cardiovascular activity” (BEECHAM - WUELFING GmbH & Co. KG, priority 1984, dated 1986).
# What was measured:
# anaesthetized rats [1] = assay: Vasopressin test in anaesthetized rats (coronary spasm), intraduodenal; format: in vivo; conditions: 32mg/kg i.d.
# Description: Vasopressin (Lysopressin: 1 I.U./kg) was administered intravenously in order to provoke coronary spasm. Compound (El) was active against coronary spasm at a dose of 32mg/kg i.d. with a duration of action greater than 2 hours. The ability of test compounds to reduce coronary spasm is taken as a measure of their anti-anginal potential in spasm - induced angina pectoris. (Ref. Drug.Res. 33(11), 8,1117-1121 (1983)).
# [2] = tested on: guinea-pig papillary muscle; assay: Ca++-antagonistic activity, calcium dependent action potentials in papillary muscle in vitro; format: cell-based; conditions: 1-3 x 10^-6M; 34+ 1°C; krebs medium containing 26 nM K+ and 0.5 nM BaCl2
# Description: In guinea-pig papillary muscle (34+ 1°C) in vitro, the Compound (El) (1-3 x 10-^6M) depressed the maximal rate of rise (Vmax) of calcium dependent action potentials evoked in krebs medium containing […] K^+ and […], BaC12. These action potentials were recorded using conventional intracellular techniques.
# anaesthetized rats [3] = assay: Haemodynamic profile in anaesthetized rats; format: in vivo; design: Dhr20 = i.v. dose which reduces heart rate by ca. 20%: unit not given here; conditions: for %effect of Dhr20 on LVP (systolic left ventricular pressure) / %effect of Dhr20 on dp/dtmax / %effect of Dhr20 on BP (mean arterial blood pressure): at Dhr20, i.v.; for %effect of Dhr20 on LVP (systolic left ventricular pressure) / %effect of Dhr20 on dp/dtmax / Dhr20 = i.v. dose which reduces heart rate by ca. 20% / %effect of Dhr20 on BP (mean arterial blood pressure): rat; for %effect of Dhr20 on dp/dtmax: left ventricular dp/dt max
# From the text: The effect of compounds of the invention on heart rate, systolic left ventricular pressure, left ventricular dp/dt max and mean arterial blood pressure was investigated so as to obtain information on the anti-anginal potential of these compounds, by reducing the oxygen demand of the ischaemic heart.
# anaesthetized rats [4] = assay: Antianginal activity, vasopressin-induced ST-segment elevation in the ECG, i.v.; format: in vivo; conditions: Rattus norvegicus, iv, reduction of ST-segment elevation after i.v. 1 I.U./kg vasopressin, read-out: minimum effective i.v. antianginal dose
# conscious rabbits = assay: Antiarrhythmic activity, suprathreshold cardiac electric stimulation in conscious rabbits; format: in vivo
# Description: Compound (El) infused at 2.5mg/min in the ear vein of conscious rabbits inhibited the arrhythmogenic effect of suprathreshold cardiac electric stimulation. The therapeutic index, i.e. the ratio between the dose of compound required to produce A-V-block (8 mg/kg) and that dose which gave an antiarrhythmic effect (0.9mg/kg) was 8.9.
Structure (SMILES),duration of action (anaesthetized rats [1]; against coronary spasm),activity against coronary spasm (anaesthetized rats [1]; vasopressin (Lysopressin) 1 I.U./kg i.v.),maximal rate of rise (Vmax) of calcium dependent action potentials [2],%effect of Dhr20 on LVP (systolic left ventricular pressure) (anaesthetized rats [3]) [%],%effect of Dhr20 on dp/dtmax (anaesthetized rats [3]) [%],i.v. duration of action on heart rate (rat) (anaesthetized rats [3]) [min],Dhr20 = i.v. dose which reduces heart rate by ca. 20% (anaesthetized rats [3]),minimal effective dose (anaesthetized rats [4]) [mg/kg],"minimal effective dose (conscious rabbits; Oryctolagus cuniculus, iv, infusion in the ear vein, conscious rabbits, read-out: dose which gave an antiarrhythmic effect) [mg/kg]","arrhythmogenic effect of suprathreshold cardiac electric stimulation (conscious rabbits; infused at 2.5mg/min in the ear vein, conscious rabbits)","dose of compound required to produce A-V-block (conscious rabbits; infusion in the ear vein, conscious rabbits) [mg/kg]",therapeutic index (conscious rabbits; ratio of A-V-block dose to antiarrhythmic dose),%effect of Dhr20 on BP (mean arterial blood pressure) (anaesthetized rats [3]) [%]
"CCC(CNC(=O)c1cc(OC)c(OC)c(OC)c1)N(C)CCN(C)C(CC)CNC(=O)c1cc(OC)c(OC)c(OC)c1 (stereo not drawn) [Compound E1, N,N'-dimethyl-N,N'-di-[1-(3,4,5-trimethoxybenzamido)-butyl-(2)]-ethylenediamine]",greater than 2 hours,active,depressed,-17,-24,5,3.2,0.2,0.9,inhibited,8,8.9,
CC[C@@H](CNC(=O)c1cc(OC)c(OC)c(OC)c1)N(C)CCN(C)[C@@H](CC)CNC(=O)c1cc(OC)c(OC)c(OC)c1 [Compound E8],,,,-29,-36,,3.2,,,,,,-30
"CCC(CNC(=O)c1cccnc1)N(C)CCN(C)C(CC)CNC(=O)c1cccnc1 (stereo not drawn) [Compound E30, N,N'-dimethyl-N,N'-di[1-nicotinoylamido-butyl-(2)]-ethylene-diamine]",,,,-9,-15,10,12.8,,,,,,-14
CCC(CNC(=O)c1cccc(Cl)c1)N(C)CCN(C)C(CC)CNC(=O)c1cccc(Cl)c1 (stereo not drawn) [Compound E3],,,,-2,-15,10,1.6,,,,,,-16
CCC(CNC(=O)c1ccncc1)N(C)CCN(C)C(CC)CNC(=O)c1ccncc1 (stereo not drawn) [Compound E29],,,,-6,-2,10,12.8,,,,,,-10
"CCC(CNC(=O)c1cc(OC)c(OC)c(OC)c1)N1CCC(N(C)C(CC)CNC(=O)c2cc(OC)c(OC)c(OC)c2)CC1 (stereo not drawn) [Compound E38, 1-[1-(3,4,5-trimethoxybenzamido-butyl-(2))]-4-N-methyl-N-[1-(3,4,5-trimethoxybenzamido-butyl-(2))]-amino-piperidine]",,,,-7,-32,10 to 15,12.8,,,,,,-6
COc1cc(C(=O)NCC2CCCCN2CCN2CCCCC2CNC(=O)c2cc(OC)c(OC)c(OC)c2)cc(OC)c1OC (stereo not drawn) [Compound E16],,,,-17.3,-32,10,6.4,,,,,,-17
CCC(CNC(=O)c1ccc(OC)c(OC)c1)N(C)CCN(C)C(CC)CNC(=O)c1ccc(OC)c(OC)c1 (stereo not drawn) [Compound E11],,,,-4,-7,5 to 10,3.2,,,,,,-2
"CCC(CNC(=O)c1cc(Cl)cc(Cl)c1)N(C)CCN(C)C(CC)CNC(=O)c1cc(Cl)cc(Cl)c1 (stereo not drawn) [Compound E2, N,N'-dimethyl-N,N'-di-(2-[1-(3,5-dichlorobenzamido)] -butyl)-ethylene-diamine]",,,,,-21,15,3.2,,,,,,-7
CCC(CNC(=O)c1ccc(C#N)cc1)N(C)CCN(C)C(CC)CNC(=O)c1ccc(C#N)cc1 (stereo not drawn) [Compound E7],,,,-5,-15,5 to 10,3.2,,,,,,-6
CCC(CNC(=O)c1ccc2c(c1)OCO2)N(C)CCN(C)C(CC)CNC(=O)c1ccc2c(c1)OCO2 (stereo not drawn) [Compound E12],,,,-8,-11,10 to 15,1.6,,,,,,-4
